Measured values as given in patent publication US12594276B2, “Inhibitors of human immunodeficiency virus replication” (ViiV Healthcare UK (No.5) Limited, priority 2024, dated 2026).
Where two headings read alike, the source gives them in different places.

Key:
[1] = test system: recombinant NL4-3 virus (nef section replaced with Renilla luciferase gene) in MT-2 cells; experiment: HIV cell culture assay (antiviral activity, luciferase readout); type: cell-based; details: Renilla, NL43, MT-2 cells infected for 4-5 days with recombinant NL4-3 Renilla luciferase virus
Method in brief: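 EC50 was derived by median-effect fitting of Renilla luciferase signal from MT-2 cells. These cells were infected for 4–5 days with NL4-3 reporter virus (nef partly replaced by luciferase; made in 293T cells) in the presence of serially diluted compound. Activity was quantified with a live-cell luciferase substrate.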

[2] = Compound cytotoxicity, XTT-based colorimetric assay; type: cell-based; details: human
Method in brief: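 Cells seeded as for the antiviral assay but left uninfected (MT2). Compound exposure continued to day 4. XTT reagent added and colour read. CC50 calculated.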

[3] = uninfected MT2 cells, day 4, XTT, read-out: CC50

Structure (SMILES)	EC50 [1] [pM]	CC50 at 4 days [2, 3] [pM]	CC50 at 4 days [2] [pM]
CS(=O)(=O)Nc1nn(CCN2CCC(F)(F)C2)c2c(-n3c([C@H](Cc4cc(F)cc(F)c4)NC(=O)Cn4nc(C(F)F)c5c4C(F)(F)[C@@H]4C[C@H]54)nc4nc(C5CCC(F)(F)CC5)cc(C(F)F)c4c3=O)ccc(Cl)c12 (atropisomer, axis not shown; (P)) [Example 154, N-[(1S)-1-[(3P)-3-{4-chloro-1-[2-(3,3-difluoropyrrolidin-1-yl)ethyl]-3-methanesulfonamido-1H-indazol-7-yl}-7-(4,4-difluorocyclohexyl)-5-(difluoromethyl)-4-oxo-3H,4H-pyrido[2,3-d]pyrimidin-2-yl]-2-(3,5-difluorophenyl)ethyl]-2-[(2S,4R)-9-(difluoromethyl)-5,5-difluoro-7,8-diazatricyclo[4.3.0.0^2,^4]nona-1(6),8-dien-7-yl]acetamide]	19	> 50000	
Cc1cc(C2(F)CCC(F)(F)CC2)nc2nc([C@H](Cc3cc(F)cc(F)c3)NC(=O)Cn3nc(C4CC4)c4c3C(F)(F)[C@@H]3C[C@H]43)n(-c3ccc(Cl)c4c(NS(C)(=O)=O)nn(CCN5C[C@H](F)C[C@H](F)C5)c34)c(=O)c12 (atropisomer, axis not shown; (P)) [Example 570, N-[(1S)-1-[(3P)-3-(4-chloro-1-{2-[(3R,5S)-3,5-difluoropiperidin-1-yl]ethyl}-3-methanesulfonamido-1H-indazol-7-yl)-5-methyl-4-oxo-7-(1,4,4-trifluorocyclohexyl)-3H,4H-pyrido[2,3-d]pyrimidin-2-yl]-2-(3,5-difluorophenyl)ethyl]-2-[(2S,4R)-9-cyclopropyl-5,5-difluoro-7,8-diazatricyclo[4.3.0.0^2,^4]nona-1(6),8-dien-7-yl]acetamide]	29	> 20000	
Cc1cc(C2CCC(F)(F)CC2)nc2nc([C@H](Cc3cc(F)cc(F)c3)NC(=O)Cn3nc(C4CC4)c4c3C[C@@H]3C[C@H]43)n(-c3ccc(Cl)c4c(NS(C)(=O)=O)nn(CC5(N6C[C@@H](C)O[C@@H](C)C6)CC5)c34)c(=O)c12 (relative stereo) [Example 691, N-[(1S)-1-[(3P)-3-[4-chloro-1-({1-[(2R,6S)-2,6-dimethylmorpholin-4-yl]cyclopropyl}methyl)-3-methanesulfonamido-1H-indazol-7-yl]-7-(4,4-difluorocyclohexyl)-5-methyl-4-oxo-3H,4H-pyrido[2,3-d]pyrimidin-2-yl]-2-(3,5-difluorophenyl)ethyl]-2-[(2R*,4R*)-9-cyclopropyl-7,8-diazatricyclo[4.3.0.0^2,^4]nona-1(6),8-dien-7-yl]acetamide]	7	> 20000	
COCCCn1nc(NS(C)(=O)=O)c2c(Cl)ccc(-n3c([C@H](Cc4cc(F)cc(F)c4)NC(=O)Cn4nc(C(F)F)c5c4C(F)(F)[C@@H]4C[C@H]54)nc4nc(C5CCC(F)(F)CC5)cc(CN5C[C@H]6C[C@@H](C5)O6)c4c3=O)c21 (atropisomer, axis not shown; (P)) [Example 531, N-[(1S)-1-[(3P)-3-[4-chloro-3-methanesulfonamido-1-(3-methoxypropyl)-1H-indazol-7-yl]-7-(4,4-difluorocyclohexyl)-5-{[(1R,5S)-6-oxa-3-azabicyclo[3.1.1]heptan-3-yl]methyl}-4-oxo-3H,4H-pyrido[2,3-d]pyrimidin-2-yl]-2-(3,5-difluorophenyl)ethyl]-2-[(2S,4R)-9-(difluoromethyl)-5,5-difluoro-7,8-diazatricyclo[4.3.0.0^2,^4]nona-1(6),8-dien-7-yl]acetamide]	21		> 20000
CS(=O)(=O)Nc1nn(CCN2C[C@@H](F)[C@@H](F)C2)c2c(-n3c([C@H](Cc4cc(F)cc(F)c4)NC(=O)Cn4nc(C(F)F)c5c4C(F)(F)[C@@H]4C[C@H]54)nc4nc(C5CCC(F)(F)CC5)ccc4c3=O)ccc(Cl)c12 (atropisomer, axis not shown; (P)) [Example 26, N-[(1S)-1-[(3P)-3-(4-chloro-1-{2-[(3R,4S)-3,4-difluoropyrrolidin-1-yl]ethyl}-3-methanesulfonamido-1H-indazol-7-yl)-7-(4,4-difluorocyclohexyl)-4-oxo-3H,4H-pyrido[2,3-d]pyrimidin-2-yl]-2-(3,5-difluorophenyl)ethyl]-2-[(2S,4R)-9-(difluoromethyl)-5,5-difluoro-7,8-diazatricyclo[4.3.0.0^2,^4]nona-1(6),8-dien-7-yl]acetamide]	11	> 50000	
CS(=O)(=O)Nc1nn(CCN2C[C@H]3C[C@@H]2CO3)c2c(-n3c([C@H](Cc4cc(F)cc(F)c4)NC(=O)Cn4nc(C5CC5)c5c4C[C@@H]4C[C@H]54)nc4nc(C5CCC(F)(F)CC5)cc(C(F)F)c4c3=O)ccc(Cl)c12 (atropisomer, axis not shown; (P)) [Example 298, N-[(1S)-1-[(3P)-3-(4-chloro-3-methanesulfonamido-1-{2-[(1R,4R)-2-oxa-5-azabicyclo[2.2.1]heptan-5-yl]ethyl}-1H-indazol-7-yl)-7-(4,4-difluorocyclohexyl)-5-(difluoromethyl)-4-oxo-3H,4H-pyrido[2,3-d]pyrimidin-2-yl]-2-(3,5-difluorophenyl)ethyl]-2-[(2S,4S)-9-cyclopropyl-7,8-diazatricyclo[4.3.0.0^2,^4]nona-1(6),8-dien-7-yl]acetamide]	16	> 50000	
COCCCn1nc(NS(C)(=O)=O)c2c(Cl)ccc(-n3c([C@H](Cc4cc(F)cc(F)c4)NC(=O)Cn4nc(C(F)F)c5c4C(F)(F)[C@@H]4C[C@H]54)nc4nc(C5CCC(F)(F)CC5)cc(NCC(=O)N5CCCCC5)c4c3=O)c21 (atropisomer, axis not shown; (P)) [Example 566, N-[(1S)-1-[(3P)-3-[4-chloro-3-methanesulfonamido-1-(3-methoxypropyl)-1H-indazol-7-yl]-7-(4,4-difluorocyclohexyl)-4-oxo-5-{[2-oxo-2-(piperidin-1-yl)ethyl]amino}-3H,4H-pyrido[2,3-d]pyrimidin-2-yl]-2-(3,5-difluorophenyl)ethyl]-2-[(2S,4R)-9-(difluoromethyl)-5,5-difluoro-7,8-diazatricyclo[4.3.0.0^2,^4]nona-1(6),8-dien-7-yl]acetamide]	79	> 20000	
Cc1cc(C2CCC(F)(F)CC2)nc2nc([C@H](Cc3cc(F)cc(F)c3)NC(=O)Cn3nc(C4CC4)c4c3C[C@@H]3C[C@H]43)n(-c3ccc(Cl)c4c(NS(C)(=O)=O)nn(CCN5CCOC(C)(C)C5)c34)c(=O)c12 (atropisomer, axis not shown; (P)) [Example 480, N-[(1S)-1-[(3P)-3-{4-chloro-1-[2-(2,2-dimethylmorpholin-4-yl)ethyl]-3-methanesulfonamido-1H-indazol-7-yl}-7-(4,4-difluorocyclohexyl)-5-methyl-4-oxo-3H,4H-pyrido[2,3-d]pyrimidin-2-yl]-2-(3,5-difluorophenyl)ethyl]-2-[(2S,4S)-9-cyclopropyl-7,8-diazatricyclo[4.3.0.0^2,^4]nona-1(6),8-dien-7-yl]acetamide]	5	> 20000	
CS(=O)(=O)Nc1nn(CCN[C@@H]2CCCOC2)c2c(-n3c([C@H](Cc4cc(F)cc(F)c4)NC(=O)Cn4nc(C(F)F)c5c4C(F)(F)[C@@H]4C[C@H]54)nc4nc(C5CCC(F)(F)CC5)ccc4c3=O)ccc(Cl)c12 (atropisomer, axis not shown; (P)) [Example 40, N-[(1S)-1-[(3P)-3-[4-chloro-3-methanesulfonamido-1-(2-{[(3R)-oxan-3-yl]amino}ethyl)-1H-indazol-7-yl]-7-(4,4-difluorocyclohexyl)-4-oxo-3H,4H-pyrido[2,3-d]pyrimidin-2-yl]-2-(3,5-difluorophenyl)ethyl]-2-[(2S,4R)-9-(difluoromethyl)-5,5-difluoro-7,8-diazatricyclo[4.3.0.0^2,^4]nona-1(6),8-dien-7-yl]acetamide]	28	> 50000	
Cc1cc(C2CCC(F)(F)CC2)nc2nc([C@H](Cc3cc(F)cc(F)c3)NC(=O)Cn3nc(C4CC4)c4c3C[C@@H]3C[C@H]43)n(-c3ccc(Cl)c4c(NS(C)(=O)=O)nn(CCN5CCO[C@@H](C(C)C)C5)c34)c(=O)c12 (atropisomer, axis not shown; (P)) [Example 456, N-[(1S)-1-[(3P)-3-(4-chloro-3-methanesulfonamido-1-{2-[(2S)-2-(propan-2-yl)morpholin-4-yl]ethyl}-1H-indazol-7-yl)-7-(4,4-difluorocyclohexyl)-5-methyl-4-oxo-3H,4H-pyrido[2,3-d]pyrimidin-2-yl]-2-(3,5-difluorophenyl)ethyl]-2-[(2S,4S)-9-cyclopropyl-7,8-diazatricyclo[4.3.0.0^2,^4]nona-1(6),8-dien-7-yl]acetamide]	10	> 20000	
CCc1cc(C2CCC(F)(F)CC2)nc2nc([C@H](Cc3cc(F)cc(F)c3)NC(=O)Cn3nc(C4CC4)c4c3C(F)(F)[C@@H]3C[C@H]43)n(-c3ccc(Cl)c4c(NS(C)(=O)=O)nn(CCCOC)c34)c(=O)c12 (atropisomer, axis not shown; (P)) [Example 639, N-[(1S)-1-[(3P)-3-[4-chloro-3-methanesulfonamido-1-(3-methoxypropyl)-1H-indazol-7-yl]-7-(4,4-difluorocyclohexyl)-5-ethyl-4-oxo-3H,4H-pyrido[2,3-d]pyrimidin-2-yl]-2-(3,5-difluorophenyl)ethyl]-2-[(2S,4R)-9-cyclopropyl-5,5-difluoro-7,8-diazatricyclo[4.3.0.0^2,^4]nona-1(6),8-dien-7-yl]acetamide]	25	> 50000	
